Measurements: patent publication US6403123B1, “Method for topical treatment of anthralin-responsive dermatological disorders” (priority 2000, dated 2002)

What was measured:
Type in all cases: in vivo, human
psoriasis [1] = assay: Earlier or concurrent treatment of the psoriasis subjects with other drugs (case histories); conditions: person
psoriasis [2] = assay: Topical treatment of psoriasis patients by the method: anthralin formulation, then wax formulation, then talc powder; conditions: person
Source text: In accordance with the present invention, the anthralin formulation is first topically applied to the involved skin area, or skin lesions, such as psoriatic plaques or eczema, of a patient in need of such treatment. […] The anthralin formulation may be applied by any means which provides a relatively uniform layer of anthralin formulation on the involved area. Suitable means of application include spraying, roll-on, and application using a brush, saturated cotton gauze, pad, sponge-tipped applicator, and the like. As the anthralin formulation penetrates into the lesions or evaporates, any unabsorbed anthralin formulation on the lesion surface can be wiped off with a tissue, paper towel, cloth or the like. Thereafter, a wax formulation is applied to the lesion to cover the anthralin formulation-treated area. The wax formulation may be applied using any application method that allows for applying a relatively uniform layer of the wax formulation. Such application methods include, but are not limited to, spraying, roll-on, and application by brush, cotton gauze, pad, sponge-tipped applicator, and the like. As the vehicle(s) of the wax formulation evaporate, a thin film of wax will be formed to cover the lesion surface of the involved area. […] Finally, a powder, such as talc, may then be optionally applied over the wax film in order to eliminate any remaining anthralin thereby further ensuring that staining of clothing or other objects is avoided. […] The powder may be applied by dusting using a puff or pad, sprinkling, spreading and the like. The method was typically carried out as follows. A liquid anthralin formulation as formulated in Example 1(A) was topically applied to skin lesions once to twice daily by the patient using a saturated cotton pad. As the anthralin penetrated into the lesions and the solvents evaporated, a tissue or paper towel was used to wipe off excess materials from the surface of the lesions. The wax formulation as formulated in Example 2(B) was topically applied to the lesions. […]

[3] = Staining of skin and clothing and skin irritation during the topical anthralin method
Source text: As the anthralin formulation penetrates into the lesions or evaporates, any unabsorbed anthralin formulation on the lesion surface can be wiped off with a tissue, paper towel, cloth or the like. Thereafter, a wax formulation is applied to the lesion to cover the anthralin formulation-treated area. The wax formulation may be applied using any application method that allows for applying a relatively uniform layer of the wax formulation. Such application methods include, but are not limited to, spraying, roll-on, and application by brush, cotton gauze, pad, sponge-tipped applicator, and the like. As the vehicle(s) of the wax formulation evaporate, a thin film of wax will be formed to cover the lesion surface of the involved area. There are two advantages to the presence of the wax film: (a) the thin wax film will act as an occlusive backing to drive the penetration of anthralin deeper into the lesions; and (b) the wax film will prevent any trace amounts of anthralin from contacting clothing or other objects.
Finally, a powder, such as talc, may then be optionally applied over the wax film in order to eliminate any remaining anthralin thereby further ensuring that staining of clothing or other objects is avoided. […]

C=C1/C(=C\C=C2/CCC[C@]3(C)[C@@H]([C@H](C)/C=C/[C@@H](O)C4CC4)CC[C@@H]23)C[C@@H](O)C[C@@H]1O [calcipotriene]
response of plaque psoriasis (psoriasis [1]; Example 6, plaque psoriasis for four years, topical treatment): did not improve well | response of generalized small plaque psoriasis (psoriasis [1]; Example 7, psoriasis for seventeen years, topical treatment): did not respond

O=C1c2c(O)cccc2Cc2cccc(O)c21 [anthralin, 1,8,9,-anthracenetriol]
improvement of the psoriasis (psoriasis [2]; Example 6, anthralin 0.2% increased to 1% by weight, once daily, maintained over one year): approximately 90% | skin free of psoriasis (psoriasis [2]; Example 7, anthralin 0.3% increased to 0.6% by weight, once daily, after four months): approximately 90% | improvement of psoriatic lesions (psoriasis [2]; Example 8, small plaque psoriasis, 3% anthralin formulation once daily, after four months): approximately 75% | staining of clothes ([3]; Example 10, 0.25% anthralin, wax formulation Example 2(B), fine talc, twice a day for four weeks): no staining of their clothes | skin irritation and staining to the skin and clothing ([3]; typical case, about 0.1% to about 0.2% by weight anthralin, once or twice daily on chronic psoriatic plaques): without skin irritation and staining to the skin and clothing

CN(Cc1cnc2nc(N)nc(N)c2n1)c1ccc(C(=O)N[C@@H](CCC(=O)O)C(=O)O)cc1 [methotrexate]
improvement of lesions (psoriasis [1]; Example 5, generalized plaque psoriasis, intramuscular injections every one to four weeks): approximately 50%
